The assay concerns the target T1, hDGAT1 (Homo sapiens, UniProt O75907).
T1 construct: host or cells: Sf9 insect cells (baculovirus); microsomal preparation
T1 sequence (O75907 1-488): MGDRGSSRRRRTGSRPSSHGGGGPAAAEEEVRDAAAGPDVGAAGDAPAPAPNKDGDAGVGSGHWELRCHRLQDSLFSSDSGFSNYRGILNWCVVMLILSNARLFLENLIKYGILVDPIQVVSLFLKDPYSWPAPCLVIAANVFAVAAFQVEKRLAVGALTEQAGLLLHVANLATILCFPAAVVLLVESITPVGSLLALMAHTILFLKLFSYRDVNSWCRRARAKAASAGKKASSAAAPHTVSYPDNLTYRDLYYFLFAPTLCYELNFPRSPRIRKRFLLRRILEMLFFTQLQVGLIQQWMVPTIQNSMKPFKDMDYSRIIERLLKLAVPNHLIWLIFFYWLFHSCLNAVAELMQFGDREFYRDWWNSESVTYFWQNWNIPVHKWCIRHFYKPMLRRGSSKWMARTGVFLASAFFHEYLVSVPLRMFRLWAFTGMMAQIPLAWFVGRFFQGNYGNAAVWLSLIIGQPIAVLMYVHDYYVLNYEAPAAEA
Kind of assay: In-vitro DGAT1 assay (hDGAT1 microsomes from Sf9 cells, 14C oleoyl CoA, triglyceride formation). Format: biochemical. A digest of the protocol:
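Human DGAT1 in baculovirus-infected Sf9 microsomes (2.5–10 μg), [14C]oleoyl-CoA with 409.5, 1228.5 or 1638 μM 1,2-dioleoyl-sn-glycerol, Tris-HCl pH 7.4 buffer with BSA. Compounds screened at 10, 5 and 1 μM in duplicate. Reaction 10 min at 37 °C; heptane-extracted [14C]triglyceride counted by scintillation.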

As a reminder, the inhibition is how much of the control response was suppressed. Low values mean little suppression, high ones strong suppression. For `CC(C)[C@@H](NC(=O)c1cc(-c2ccc(Nc3nc4ccc(F)cc4s3)cc2)no1)C(=O)O` [Example 42, (R)-2-({3-[4-(6-Fluoro-benzothiazol-2-ylamino)-phenyl]-isoxazole-5-carbonyl}-amino)-3-methyl-butyric acid], the inhibition at 10 µM was 50 to 75%.

`CC(C)C(NC(=O)c1cc(-c2ccc(OCc3ccccc3C(F)(F)F)cc2)no1)C(=O)O` (stereo not shown) [Example 330, 3-Methyl-2-(3-(4-(2-(trifluoromethyl)benzyloxy)phenyl)isoxazole-5-carboxamido)butanoic acid] displayed an inhibition at 1 µM of 0 to 50%.

`CC(C)[C@H](NC(=O)c1cc(-c2ccc(NC(=O)Nc3ccc(Cl)cc3C(F)(F)F)cc2)no1)C(=O)O` [Example 215, (S)-2-(3-(4-(3-(4-chloro-2-(trifluoromethyl)phenyl)ureido)phenyl)isoxazole-5-carboxamido)-3-methylbutanoic acid]: the inhibition at 1 µM is 75 to 100%.

With `COC(=O)[C@@H](NC(=O)c1cc(-c2ccc(NC(=O)Nc3ccccc3F)cc2F)no1)C(C)C` [Example 143, (S)-methyl 2-(3-(2-fluoro-4-(3-(2-fluorophenyl)ureido)phenyl)isoxazole-5-carboxamido)-3-methylbutanoate], the inhibition at 5 µM lay in the range of 50 to 75%.

In turn, `CC(C)[C@H](NC(=O)c1cc(-c2ccc(NC(=O)Nc3ccc(F)c(F)c3)cc2)no1)C(=O)O` [Example 130, (S)-2-(3-(4-(3-(3,4-difluorophenyl)ureido)phenyl)isoxazole-5-carboxamido)-3-methylbutanoic acid] came in with an inhibition at 1 µM of 75 to 100%.

In turn, `CC(C)[C@H](NC(=O)c1cc(-c2ccc(NC(=O)Nc3ccc4c(c3)CCC4)cc2)no1)C(=O)O` [Example 181, (S)-2-(3-(4-(3-(2,3-dihydro-1H-inden-5-yl)ureido)phenyl)isoxazole-5-carboxamido)-3-methylbutanoic acid] returned an inhibition at 1 µM of 75 to 100%.

For `COC(=O)[C@@H](NC(=NO)c1cc(-c2ccc(Nc3nc4ccc(F)cc4s3)cc2)no1)C(C)C` [Example 7, (S)-2-({3-[4-(6-Fluoro-benzothiazol-2-ylamino)-phenyl]-N-hydroxy-isoxazole-5-carboximidoyl}-amino)-3-methyl-butyric acid methyl ester], the inhibition at 10 µM lay within 50 to 75%.

As for `COC(=O)[C@@H](NC(=O)c1nc(-c2ccc(NC(=S)NCc3ccccc3)cc2)no1)C(C)C` [Example 356, (S)-methyl 2-(3-(4-(3-benzylthioureido)phenyl)-1,2,4-oxadiazole-5-carboxamido)-3-methylbutanoate], the inhibition at 5 µM is 50 to 75%.

Consider `Cc1ccc(NC(=O)Nc2ccc(-c3noc(C(=O)N[C@H](C(=O)O)C(C)C)n3)cc2)cc1` [Example 347, (S)-3-Methyl-2-(3-(4-(3-p-tolylureido)phenyl)-1,2,4-oxadiazole-5-carboxamido)butanoic acid], for which the inhibition at 5 µM lay in the range of 50 to 75%.

Regarding `CC(C)[C@H](NC(=O)c1cc(-c2ccc(NC(=O)Nc3ccc(Oc4ccccc4)cc3)cc2)no1)C(=O)O` [Example 240, (S)-3-Methyl-2-(3-(4-(3-(4-phenoxyphenyl)ureido)phenyl)isoxazole-5-carboxamido)butanoic acid], the inhibition at 1 µM lay in the range of 75 to 100%.

As to `CC(C)[C@H](NC(=O)c1csc(-c2ccc(NC(=O)Nc3ccccc3Cl)cc2)n1)C(=O)O` [Example 369, (S)-2-(2-(4-(3-(2-Chlorophenyl)ureido)phenyl)thiazole-4-carboxamido)-3-methylbutanoic acid], the inhibition at 1 µM was 0 to 50%.

`CC(C)[C@H](NC(=O)c1cc(-c2ccc(NC(=O)Nc3cc(C(F)(F)F)ccc3Cl)cc2)no1)C(=O)O` [Example 211, (S)-2-(3-(4-(3-(2-chloro-5-(trifluoromethyl)phenyl)ureido)phenyl)isoxazole-5-carboxamido)-3-methylbutanoic acid] gave an inhibition at 1 µM of 75 to 100%.

As for `COC(=O)c1ccc(NC(=O)Nc2ccc(-c3cc(C(=O)NC(C(=O)OC)C(C)C)on3)cc2)cc1` (stereo not shown) [Example 283, Methyl 4-(3-(4-(5-(1-methoxy-3-methyl-1-oxobutan-2-ylcarbamoyl)isoxazol-3-yl)phenyl)ureido)benzoate], the inhibition at 1 µM lay within 0 to 50%.

For the origin of these results see patent US8835428B2, “Diacylglycerol acyltransferase inhibitors” (Piramal Enterprises Limited, priority 2008, dated 2014).
